# ChEMBL document CHEMBL3885861, “Open TG-GATES”
# Species on record: Rattus norvegicus
# Experiment: Open TG-GATES - Regimen: Single
# Format: toxicity, organism-based, Sprague-Dawley
# Design: regimen Single, gender Male, age 6 weeks
# Details: in vivo, ip, 0 mg/kg, route intraperitoneal injection, dose 0 ug/Kg, dose level Control; for APTT / Bas / Eos / Fbg / Hb / Ht / Lym / MCH / MCHC / MCV / Mono / Neu / PT / Plat / RBC / Ret / WBC: tissue Blood; for KIDNEY_L / KIDNEY_R / KIDNEY_TOTAL: tissue Kidney; for LIVER: tissue Liver; for A/G / ALP / ALT / AST / BUN / CRE / Ca / Cl / DBIL / GLC / IP / K / LDH / Na / PL / RALB / TBIL / TC / TG / TP / gamma-GTP: tissue Plasma
substance,measurement,setting,value
H-KGDRLS-OH [TNF-ALPHA],TERMINAL_BW,3 h,200.6 g
same,APTT,3 h,20 s
same,Bas,3 h,0.4%
same,Eos,3 h,0.8%
same,Fbg,3 h,268.8 mg/dL
same,Hb,3 h,13 g/dL
same,Ht,3 h,40.3%
same,Lym,3 h,73.8%
same,MCH,3 h,21.6 pg
same,MCHC,3 h,32.3%
same,MCV,3 h,66.8 fL
same,Mono,3 h,3.8%
same,Neu,3 h,19.8%
same,PT,3 h,15.4 s
same,Plat,3 h,101.9 x10_4/uL
same,RBC,3 h,603.2 x10_4/ul
same,Ret,3 h,9.3%
same,WBC,3 h,95.8 x10_2/uL
same,KIDNEY_L,3 h,0.9 g
same,KIDNEY_R,3 h,0.9 g
same,KIDNEY_TOTAL,3 h,1.7 g
same,LIVER,3 h,9.3 g
same,A/G,3 h,0.9
same,ALP,3 h,1391 IU/L
same,ALT,3 h,43 IU/L
same,AST,3 h,74.8 IU/L
same,BUN,3 h,10.8 mg/dL
same,CRE,3 h,0.2 mg/dL
same,Ca,3 h,10.8 mg/dL
same,Cl,3 h,105.2 meq/L
same,DBIL,3 h,0.012 mg/dL
same,GLC,3 h,173.4 mg/dL
same,IP,3 h,9.6 mg/dL
same,K,3 h,4.1 meq/L
same,LDH,3 h,73.2 IU/L
same,Na,3 h,142.2 meq/L
same,PL,3 h,149.2 mg/dL
same,RALB,3 h,2.4 g/dL
same,TBIL,3 h,0.06 mg/dL
same,TC,3 h,79.8 mg/dL
same,TG,3 h,61.2 mg/dL
same,TP,3 h,5.3 g/dL
same,gamma-GTP,3 h,1.2 IU/L
same,TERMINAL_BW,6 h,199.4 g
same,APTT,6 h,16.7 s
same,Bas,6 h,0%
same,Eos,6 h,0.2%
same,Fbg,6 h,285 mg/dL
same,Hb,6 h,13.1 g/dL
same,Ht,6 h,40%
same,Lym,6 h,68.8%
same,MCH,6 h,21.3 pg
same,MCHC,6 h,32.6%
same,MCV,6 h,65.1 fL
same,Mono,6 h,2.8%
same,Neu,6 h,26.8%
same,PT,6 h,15.6 s
same,Plat,6 h,109.7 x10_4/uL
same,RBC,6 h,615.4 x10_4/ul
same,Ret,6 h,8.8%
same,WBC,6 h,77.4 x10_2/uL
same,KIDNEY_L,6 h,0.9 g
same,KIDNEY_R,6 h,0.9 g
same,KIDNEY_TOTAL,6 h,1.9 g
same,LIVER,6 h,8.5 g
same,A/G,6 h,0.9
same,ALP,6 h,1347.2 IU/L
same,ALT,6 h,40 IU/L
same,AST,6 h,73.6 IU/L
same,BUN,6 h,9.4 mg/dL
same,CRE,6 h,0.2 mg/dL
same,Ca,6 h,10.8 mg/dL
same,Cl,6 h,105 meq/L
same,DBIL,6 h,0.01 mg/dL
same,GLC,6 h,179.6 mg/dL
same,IP,6 h,10.1 mg/dL
same,K,6 h,4 meq/L
same,LDH,6 h,58.8 IU/L
same,Na,6 h,142.8 meq/L
same,PL,6 h,146.4 mg/dL
same,RALB,6 h,2.5 g/dL
same,TBIL,6 h,0.058 mg/dL
same,TC,6 h,78.8 mg/dL
same,TG,6 h,44 mg/dL
same,TP,6 h,5.3 g/dL
same,gamma-GTP,6 h,1.4 IU/L
same,TERMINAL_BW,9 h,195.6 g
same,APTT,9 h,18 s
same,Bas,9 h,0.4%
same,Eos,9 h,0.4%
same,Fbg,9 h,305 mg/dL
same,Hb,9 h,13.1 g/dL
same,Ht,9 h,40.5%
same,Lym,9 h,68.4%
same,MCH,9 h,20.9 pg
same,MCHC,9 h,32.5%
same,MCV,9 h,64.2 fL
same,Mono,9 h,1.6%
same,Neu,9 h,28.6%
same,PT,9 h,15.4 s
same,Plat,9 h,118.6 x10_4/uL
same,RBC,9 h,631 x10_4/ul
same,Ret,9 h,8.6%
same,WBC,9 h,77.2 x10_2/uL
same,KIDNEY_L,9 h,0.9 g
same,KIDNEY_R,9 h,0.9 g
same,KIDNEY_TOTAL,9 h,1.9 g
same,LIVER,9 h,8.2 g
same,A/G,9 h,0.9
same,ALP,9 h,1246.8 IU/L
same,ALT,9 h,42.6 IU/L
same,AST,9 h,81.6 IU/L
same,BUN,9 h,7.6 mg/dL
same,CRE,9 h,0.1 mg/dL
same,Ca,9 h,10.4 mg/dL
same,Cl,9 h,105.4 meq/L
same,DBIL,9 h,0.004 mg/dL
same,GLC,9 h,167.4 mg/dL
same,IP,9 h,9.9 mg/dL
same,K,9 h,3.5 meq/L
same,LDH,9 h,61.4 IU/L
same,Na,9 h,143.4 meq/L
same,PL,9 h,135.8 mg/dL
same,RALB,9 h,2.5 g/dL
same,TBIL,9 h,0.058 mg/dL
same,TC,9 h,74 mg/dL
same,TG,9 h,33.6 mg/dL
same,TP,9 h,5.4 g/dL
same,gamma-GTP,9 h,1.2 IU/L
same,TERMINAL_BW,24 h,211.3 g
same,APTT,24 h,17.6 s
same,Bas,24 h,0%
same,Eos,24 h,1%
same,Fbg,24 h,302 mg/dL
same,Hb,24 h,13.3 g/dL
same,Ht,24 h,40.5%
same,Lym,24 h,78%
same,MCH,24 h,21 pg
same,MCHC,24 h,32.8%
same,MCV,24 h,64 fL
same,Mono,24 h,2.8%
same,Neu,24 h,17%
same,PT,24 h,15.1 s
same,Plat,24 h,115.6 x10_4/uL
same,RBC,24 h,634 x10_4/ul
same,Ret,24 h,8.1%
same,WBC,24 h,80.3 x10_2/uL
same,KIDNEY_L,24 h,0.9 g
same,KIDNEY_R,24 h,0.9 g
same,KIDNEY_TOTAL,24 h,1.8 g
same,LIVER,24 h,10.2 g
same,A/G,24 h,0.8
same,ALP,24 h,1555.2 IU/L
same,ALT,24 h,49 IU/L
same,AST,24 h,69.8 IU/L
same,BUN,24 h,14.8 mg/dL
same,CRE,24 h,0.2 mg/dL
same,Ca,24 h,11 mg/dL
same,Cl,24 h,105.8 meq/L
same,DBIL,24 h,0.008 mg/dL
same,GLC,24 h,184.2 mg/dL
same,IP,24 h,9.1 mg/dL
same,K,24 h,4.2 meq/L
same,LDH,24 h,76.2 IU/L
same,Na,24 h,142 meq/L
same,PL,24 h,172.2 mg/dL
same,RALB,24 h,2.6 g/dL
same,TBIL,24 h,0.038 mg/dL
same,TC,24 h,93.2 mg/dL
same,TG,24 h,98.2 mg/dL
same,TP,24 h,5.6 g/dL
same,gamma-GTP,24 h,1 IU/L
